Test results reported in patent US5446157A, “Boron difluoride compounds useful in photodynamic therapy and production of laser light” (priority 1993, dated 1995).
“Also recorded” adds a separate entry of the source. Structures can show the parent of a compound that is named as a salt.

What was measured:
breast tumors = assay: Photodynamic therapy of DMBA-induced breast tumors, intratumor injection (Table VIII); assay type: in vivo, female Sprague Dawley rats; settings: for COMPLETE RESPONSE (ANIMALS) / FINAL TOTAL TUMOR NO. / FINAL MEAN TUMOR VOLUME: four weeks
Method: Breast tumors were induced in fifty-day-old female Sprague Dawley rats by the oral feeding of dimethylbenzanthracene (DMBA) in peanut oil. Individual rats were fed 10 mg DMBA per 100 g body weight via gavage tubes. Palpable tumors developed 45 to 92 days after feeding. […] Following tumor development, tumors were measured and injected with PMPDS-BF2 dissolved in saline ([…] was injected into the center of the tumors to a concentration of 20 μg/cm^3 of tumor volume. Twenty-four hours after intratumor injection, the rats were anesthetized using phenobarbital (2 mg/kg i.p.) and the injected tumors were exposed to light from either a quartz lamp (100 or 250 w) or an argon laser (with 488/514 and 628 nm frequencies) for 10-20 minutes. Also included in this experiment were three control groups: (1) saline injected, unirradiated tumors; (2) saline injected, irradiated tumors; (3) PMPDS-BF2 injected, and unirradiated tumors.

[1] = tested on: human ovarian tumor cells; assay: Photodynamic growth inhibition of human ovarian cancer cells in vitro (soft agar); assay type: cell-based
Method: 1,3,5,7,8-pentamethylpyrromethene-boron difluoride-2,6-disodium disulfonate salt (PMPDS-BF2) and bimane diphosphonate were prepared according to previously described methods.
Human ovarian cells from fifteen individual patients were evaluated. All cancers were epithelial originating ovarian adenocarcinomas. Each cancer had been passed through at least one culture in RPMI-1640 (10% FBA) medium prior to use in the present study. In each case cells were harvested and washed in RPMI-1640 medium and resuspended in concentrations of 2.6×10^6 cells/ml at 5° C. The cells (2.6×10^6 cells/ml) were then incubated in a RPMI-1640 growth medium (containing 10% fetal bovine […], penicillin 100 U/ml and streptomycin 100 μg/ml) pH, 7.4 with graded doses of PMPDS-BF2 complex for 30 minutes at 37° C. in a 5% CO2 /air incubator with gentle shaking. The three concentrations of PMPDS-BF2 evaluated in this study were 0.004 μg, 0.04 μg, and 0.4 μg/ml of medium. The cell suspension was then washed with cold RPMI-1640 medium to remove extracellular PMPDS-BF2 complex, and then the cells were resuspended in fresh RPMI growth medium. Fifteen (15) ml portions of the cell suspensions (2.6×10^6 cells/ml) were irradiated in glass tubes at 37° C. in room air over a 10-20 minute period using a General Electric sun lamp. Controls were cells exposed to PMPDS-BF2 with no light exposure, cells with light exposure alone and cells with neither exposure to light nor chemicals.
Under identical conditions as above, bimane diphosphonate was evaluated for cytotoxic activities in the presence and absence of light. After the above incubations with PMPDS-BF2 or bimanes±light as controls, melted Bacto-agar (Difco Laboratories, Inc., Detroit, Mich.) was added to the cell suspensions to a final concentration of 0.3% agar. The mixtures were plated in 35 mm plastic tissue culture dishes on a feeder layer containing an enriched McCoy's 5A medium and 0.5% agar with the addition of 2-mercaptoethanol (5 mM) and DEAE-dextran. The seeding density for the cells in this study was kept between 1-5×10^4 cells per dish and the plates incubated at 37° C. in a CO2 incubator. Incubation was continued for another 2-3 weeks and the plates examined under an inverted phase contrast microscope and cells counted. Since these cells grow as tight aggregates in soft-agar, it was impossible to determine the number of cells in each growth. Instead, an ocular micrometer was used to count colonies 30 μm or larger in size. Plating efficiency, defined as the number of colonies formed per 100 viable cells plated, was compared between groups.

[2] = Laser characteristics of pyrromethene-BF2 complexes under flashlamp excitation (Table IV); settings: DMA/MeOH
[3] = P-BF2 dyes dispersed in acrylic co-polymer (solid-state laser)
From the text: Any laser dye of the present invention may be substituted for the dye in any of the examples of that incorporated patent. The matrix generally includes solid polymeric host laser rods prepared using bulk polymerization of acrylic acid ester comonomers.

[4] = tested on: metastatic breast cancer spread to the chest wall; assay: Topical photodynamic treatment of metastatic breast cancer of the chest wall, case history; assay type: in vivo, patient
From the text: The following case history also illustrates topical application of one of the compounds of the present invention in a person with a 12-year history of metastatic breast cancer spread to the chest wall. The patient had been treated with combinations of numerous chemotherapeutic agents and radiation therapy. Their cancer continued to progress and they received nine weekly treatments with a topical 0.3% solution of 1,3,5,7,8-pentamethylpyrromethene boron difluoride-2,6-disulfonate (PMPDS-BF2) in dimethylsulfoxide applied to the chest wall lesions followed by exposure to a General Electric sunlamp for ten minutes. The patient had initially a greater than 50% shrinkage of their tumor, which lasted over nine weeks.

[5] = Triplet-triplet (T--T) absorption; assay type: physicochemical; settings: fluorescent spectral area
Method: The T--T absorption spectrum was recorded at 77K, employing a 1×10^-4 molar solution of 2-methyltetrahydrofuran as solvent.

[6] = Solubility/fluorescence in various solvents (Tables I, II); assay type: physicochemical
Method: In addition, tests were conducted on the product in order to determine its solubility/fluorescence in various solvents. One property of the compositions described herein involves a variable degree of solubility/fluorescence relative to the solvents with which they are combined. Data showing a variety of different solvents combined with the product of Example I is presented below in Table I:
As in Example I, tests were conducted on the product in Example II in order to determine its fluorescence in various solvents. Data showing a variety of different solvents combined with the product of Example II is presented below in Table II: […]

[7] = topical 0.3% solution in dimethylsulfoxide, sunlamp ten minutes

Life [2]: very long | solubility in the polymer matrix [3]: particularly soluble | T--T absorption [5]: barely detectable | T--T absorption ε.tau. [5]: ~ 3×10^-3 | Solubility ([6]; (CF3)2 CHOH): Insoluble | Solubility ([6]; CH2 Cl2): Insoluble | Solubility ([6]; CH3 CO2 C2 H5): Insoluble | Solubility ([6]; H2 O): Soluble | Solubility ([6]; O(CH2 CH2)2 O): Insoluble
Structure (SMILES): CC1=C(S(=O)(=O)O)C(C)=[N+]2C1=C(C)c1c(C)c(S(=O)(=O)O)c(C)n1[B-]2(F)F [PMPDS-BF2, Disodium salt of 4,4-difluoro-1,3,5,7,8-pentamethyl-4-bora-3a,4a-diaza-s-indacene-2,6-disulfonic acid monohydrate]
COMPLETE RESPONSE (ANIMALS) (breast tumors; 20 ug/cm^3, no light): 2/10 | FINAL TOTAL TUMOR NO. (breast tumors; 20 ug/cm^3, no light, initial 12): 13 | FINAL MEAN TUMOR VOLUME (breast tumors; 20 ug/cm^3 intratumor plus light (quartz lamp 100 watt, 20 min), initial 0.3): 0.1 cm^3 | FINAL MEAN TUMOR VOLUME (breast tumors; 20 ug/cm^3 intratumor, no light, initial 0.2): 0.7 cm^3 | COMPLETE RESPONSE (ANIMALS) (breast tumors; 20 ug/cm^3 plus light): 7/10 | FINAL TOTAL TUMOR NO. (breast tumors; 20 ug/cm^3 plus light, initial 14): 3 | tumor necrosis (breast tumors; injected and irradiated): Tumor necrosis was observed | tumor remission (breast tumors; injected and irradiated): 50-100% | necrosis or remission (breast tumors; injected, not irradiated): no necrosis or remission | inhibition in cell growth ([1]; 0.004 μg/ml plus light): 40-70% | cell morphology ([1]; 0.004 μg/ml plus light, within 48 hours): pyknotic changes with nuclear fragmentation | colonization / morphology of cells ([1]; 0.04 μg/ml plus light, three days post exposure): unable to colonize, demonstrated pyknotic changes in the nucleus and cytoplasmic discoloration | inhibition of cell growth ([1]; 0.4 μg/ml plus light): 100% | cytotoxic response without light ([1]; absence of light exposure, monohydrate): did not demonstrate significant cytotoxic responses; also recorded: did not produce cytotoxicities | shrinkage of tumor ([4]; topical 0.3% solution in dimethylsulfoxide, nine weekly treatments, sunlamp ten minutes): greater than 50% | duration of tumor shrinkage [4, 7]: over nine | toxic reactions [4, 7]: no toxic reactions | course after nine week shrinkage ([4]; topical 0.3% solution, after nine weeks): the metastatic lesions again began to grow
